Laboratory results taken from the supplement of paper PMC8612539.
In brackets after ≈: the same amount, converted by molar mass.

How the values were obtained:
Enterococcus spp. = assay: minimum inhibitory concentration (MIC)
Description: (§1)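 Broth microdilution MIC (Sensititre BOPO7F bovine plate, CLSI methods) of 19 antimicrobials against field isolates of P. multocida, M. haemolytica, H. somni (deep nasopharyngeal swabs) and E. coli, Enterococcus spp. (rectal swabs) from weaned dairy heifers. Incubation 16-24 h at 35 C. MIC is the lowest concentration preventing visible growth. Values with <= or > lie at the tested range limits. Trimethoprim-sulfamethoxazole is given as the trimethoprim component of a 1:19 mixture.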

Mannheimia haemolytica = assay: minimum inhibitory concentration (MIC)
Description: as §1

CC[C@H]1OC(=O)C[C@@H](O)[C@H](C)[C@@H](O[C@@H]2O[C@H](C)[C@@H](O)[C@H](N(C)C)[C@H]2O)[C@@H](CCN2C[C@H](C)C[C@H](C)C2)C[C@@H](C)C(=O)/C=C/C(C)=C/[C@@H]1CO[C@@H]1O[C@H](C)[C@@H](O)[C@@H](OC)[C@H]1OC [Tilmicosin]
minimum inhibitory concentration [µg/mL]
Settings	Enterococcus spp.	Mannheimia haemolytica
isolate (source animal id): 2	8 (≈ 9.2 µM)	–
isolate (source animal id): 8	–	4 (≈ 4.6 µM)
isolate (source animal id): 13	–	4 (≈ 4.6 µM)
isolate (source animal id): 18	–	4 (≈ 4.6 µM)
isolate (source animal id): 21	–	4 (≈ 4.6 µM)
isolate (source animal id): 25	–	> 16
isolate (source animal id): 27	–	> 16
isolate (source animal id): 28	–	16 (≈ 18.4 µM)
isolate (source animal id): 30	–	8 (≈ 9.2 µM)
isolate (source animal id): 31	–	> 16
isolate (source animal id): 32	–	4 (≈ 4.6 µM)
isolate (source animal id): 34	–	8 (≈ 9.2 µM)
isolate (source animal id): 35	> 16	–
isolate (source animal id): 36	–	> 16
isolate (source animal id): 37	–	> 16
isolate (source animal id): 40	–	4 (≈ 4.6 µM)
isolate (source animal id): 41	–	4 (≈ 4.6 µM)
isolate (source animal id): 42	8 (≈ 9.2 µM)	–
isolate (source animal id): 43	–	4 (≈ 4.6 µM)
isolate (source animal id): 44	8 (≈ 9.2 µM)	–
isolate (source animal id): 46	–	> 16
isolate (source animal id): 49	–	> 16
isolate (source animal id): 50	–	> 16
isolate (source animal id): 51	–	4 (≈ 4.6 µM)
isolate (source animal id): 52	–	4 (≈ 4.6 µM)
isolate (source animal id): 53	–	4 (≈ 4.6 µM)
isolate (source animal id): 55	–	4 (≈ 4.6 µM)
isolate (source animal id): 56	–	4 (≈ 4.6 µM)
isolate (source animal id): 57	–	> 16
isolate (source animal id): 79	8 (≈ 9.2 µM)	–
isolate (source animal id): 88	8 (≈ 9.2 µM)	–
isolate (source animal id): 91	8 (≈ 9.2 µM)	–
isolate (source animal id): 92	16 (≈ 18.4 µM)	–
isolate (source animal id): 100	–	> 16
isolate (source animal id): 103	–	> 16
isolate (source animal id): 107	–	16 (≈ 18.4 µM)
isolate (source animal id): 108	–	16 (≈ 18.4 µM)
isolate (source animal id): 111	8 (≈ 9.2 µM)	–
isolate (source animal id): 112	–	> 16
isolate (source animal id): 113	–	> 16
isolate (source animal id): 121	–	> 16
isolate (source animal id): 122	> 16	> 16
isolate (source animal id): 123	8 (≈ 9.2 µM)	> 16
isolate (source animal id): 126	–	> 16
isolate (source animal id): 133	8 (≈ 9.2 µM)	> 16
isolate (source animal id): 135	–	> 16
isolate (source animal id): 138	–	> 16
isolate (source animal id): 141	–	> 16
isolate (source animal id): 142	–	> 16
isolate (source animal id): 145	–	16 (≈ 18.4 µM)
isolate (source animal id): 149	–	8 (≈ 9.2 µM)
isolate (source animal id): 151	–	8 (≈ 9.2 µM)
isolate (source animal id): 152	–	> 16
isolate (source animal id): 154	–	8 (≈ 9.2 µM)
isolate (source animal id): 158	> 16	–
isolate (source animal id): 159	–	> 16
isolate (source animal id): 162	–	> 16
isolate (source animal id): 168	16 (≈ 18.4 µM)	–
isolate (source animal id): 169	16 (≈ 18.4 µM)	–
isolate (source animal id): 170	–	16 (≈ 18.4 µM)
isolate (source animal id): 171	16 (≈ 18.4 µM)	8 (≈ 9.2 µM)
isolate (source animal id): 172	–	16 (≈ 18.4 µM)
isolate (source animal id): 173	–	16 (≈ 18.4 µM)
isolate (source animal id): 175	> 16	–
isolate (source animal id): 177	16 (≈ 18.4 µM)	–
isolate (source animal id): 179	–	8 (≈ 9.2 µM)
isolate (source animal id): 180	–	4 (≈ 4.6 µM)
isolate (source animal id): 181	8 (≈ 9.2 µM)	–
isolate (source animal id): 182	16 (≈ 18.4 µM)	–
isolate (source animal id): 183	8 (≈ 9.2 µM)	4 (≈ 4.6 µM)
isolate (source animal id): 186	–	4 (≈ 4.6 µM)
isolate (source animal id): 187	16 (≈ 18.4 µM)	8 (≈ 9.2 µM)
isolate (source animal id): 188	–	4 (≈ 4.6 µM)
isolate (source animal id): 190	8 (≈ 9.2 µM)	4 (≈ 4.6 µM)
isolate (source animal id): 191	–	16 (≈ 18.4 µM)
isolate (source animal id): 192	–	8 (≈ 9.2 µM)
isolate (source animal id): 194	8 (≈ 9.2 µM)	–
isolate (source animal id): 195	8 (≈ 9.2 µM)	–
isolate (source animal id): 197	8 (≈ 9.2 µM)	–
isolate (source animal id): 201	–	16 (≈ 18.4 µM)
isolate (source animal id): 202	–	16 (≈ 18.4 µM)
isolate (source animal id): 209	–	16 (≈ 18.4 µM)
isolate (source animal id): 211	8 (≈ 9.2 µM)	16 (≈ 18.4 µM)
isolate (source animal id): 214	8 (≈ 9.2 µM)	–
isolate (source animal id): 220	–	16 (≈ 18.4 µM)
isolate (source animal id): 221	–	8 (≈ 9.2 µM)
isolate (source animal id): 222	8 (≈ 9.2 µM)	–
isolate (source animal id): 223	8 (≈ 9.2 µM)	8 (≈ 9.2 µM)
isolate (source animal id): 228	> 16	–
isolate (source animal id): 230	> 16	–
isolate (source animal id): 233	–	8 (≈ 9.2 µM)
isolate (source animal id): 235	> 16	–
isolate (source animal id): 236	8 (≈ 9.2 µM)	–
isolate (source animal id): 237	–	> 16
isolate (source animal id): 239	4 (≈ 4.6 µM)	–
isolate (source animal id): 241	> 16	> 16
isolate (source animal id): 244	16 (≈ 18.4 µM)	–
isolate (source animal id): 246	16 (≈ 18.4 µM)	–
isolate (source animal id): 247	> 16	–
isolate (source animal id): 250	16 (≈ 18.4 µM)	–
isolate (source animal id): 252	> 16	> 16
isolate (source animal id): 253	–	> 16
isolate (source animal id): 259	–	> 16
isolate (source animal id): 260	–	> 16
isolate (source animal id): 262	–	> 16
isolate (source animal id): 268	> 16	–
isolate (source animal id): 282	8 (≈ 9.2 µM)	> 16
isolate (source animal id): 285	> 16	–
isolate (source animal id): 287	–	> 16
isolate (source animal id): 288	–	4 (≈ 4.6 µM)
isolate (source animal id): 289	16 (≈ 18.4 µM)	–
isolate (source animal id): 290	8 (≈ 9.2 µM)	–
isolate (source animal id): 291	–	4 (≈ 4.6 µM)
isolate (source animal id): 293	–	> 16
isolate (source animal id): 296	8 (≈ 9.2 µM)	–
isolate (source animal id): 298	4 (≈ 4.6 µM)	> 16
isolate (source animal id): 299	–	> 16
isolate (source animal id): 300	–	8 (≈ 9.2 µM)
isolate (source animal id): 301	8 (≈ 9.2 µM)	–
isolate (source animal id): 302	–	> 16
isolate (source animal id): 304	–	> 16
isolate (source animal id): 306	–	4 (≈ 4.6 µM)
isolate (source animal id): 308	–	4 (≈ 4.6 µM)
isolate (source animal id): 309	–	4 (≈ 4.6 µM)
isolate (source animal id): 310	> 16	–
isolate (source animal id): 313	–	> 16
isolate (source animal id): 318	–	> 16
isolate (source animal id): 320	8 (≈ 9.2 µM)	8 (≈ 9.2 µM)
isolate (source animal id): 321	–	> 16
isolate (source animal id): 323	–	> 16
isolate (source animal id): 324	–	> 16
isolate (source animal id): 326	–	> 16
isolate (source animal id): 328	–	> 16
isolate (source animal id): 329	–	> 16
isolate (source animal id): 331	8 (≈ 9.2 µM)	–
isolate (source animal id): 333	8 (≈ 9.2 µM)	> 16
isolate (source animal id): 335	–	> 16
isolate (source animal id): 338	–	> 16
isolate (source animal id): 341	> 16	–
